Tests used:
[1] = biological target: T1, human VR1 (Homo sapiens, UniProt Q8NER1); assay: VR1 capsaicin-based assay (FLIPR calcium influx); type: cell-based; conditions: HEK293-EcR cells induced to express human VR1; activation by capsaicin (400 nM); Fluo-4, FLIPR
T1 construct: expressed in transfected cells
Experimental: (§1) Human VR1 cloning. Human spinal cord RNA (commercially available from Clontech, Palo Alto, Calif.) was used. Reverse transcription was conducted on 1.0 μg total RNA using Thermoscript Reverse Transcriptase (commercially available from Invitrogen, Carlsbad, Calif.) and oligo dT primers as detailed in its product description. Reverse transcription reactions were incubated at 55° C. for 1 h, heat-inactivated at 85° C. for 5 min, and RNase H-treated at 37° C. for 20 min.
(§2) Human VR1 cDNA sequence was obtained by comparison of the human genomic sequence, prior to annotation, to the published rat sequence. Intron sequences were removed and flanking exonic sequences were joined to generate the hypothetical human cDNA. Primers flanking the coding region of human VR1 were designed as follows: forward primer, […] (SEO ID NO: 1); and reverse primer, […] (SEO ID NO: 2). […]
(§3) Generation of inducible cell lines. […] On the day of assay, cells were loaded with Fluo-4 (a calcium-sensitive dye that is commercially available from Molecular Probes, Eugene, Oreg.) and CAP-mediated calcium influx was measured using a Fluorometric Imaging Plate Reader (“FLIPR”) (commercially available from Molecular Devices Corp., Sunnyvale, Calif.) as described below. […]

[2] = biological target: T1, human VR1; assay: VR1 pH-based assay (FLIPR calcium influx); type: cell-based; conditions: HEK293-EcR cells induced to express human VR1; activation by agonist buffer pH 5.5; Fluo-4, FLIPR
Experimental: as §1, §2, §3

T1 sequence (Q8NER1 whole entry): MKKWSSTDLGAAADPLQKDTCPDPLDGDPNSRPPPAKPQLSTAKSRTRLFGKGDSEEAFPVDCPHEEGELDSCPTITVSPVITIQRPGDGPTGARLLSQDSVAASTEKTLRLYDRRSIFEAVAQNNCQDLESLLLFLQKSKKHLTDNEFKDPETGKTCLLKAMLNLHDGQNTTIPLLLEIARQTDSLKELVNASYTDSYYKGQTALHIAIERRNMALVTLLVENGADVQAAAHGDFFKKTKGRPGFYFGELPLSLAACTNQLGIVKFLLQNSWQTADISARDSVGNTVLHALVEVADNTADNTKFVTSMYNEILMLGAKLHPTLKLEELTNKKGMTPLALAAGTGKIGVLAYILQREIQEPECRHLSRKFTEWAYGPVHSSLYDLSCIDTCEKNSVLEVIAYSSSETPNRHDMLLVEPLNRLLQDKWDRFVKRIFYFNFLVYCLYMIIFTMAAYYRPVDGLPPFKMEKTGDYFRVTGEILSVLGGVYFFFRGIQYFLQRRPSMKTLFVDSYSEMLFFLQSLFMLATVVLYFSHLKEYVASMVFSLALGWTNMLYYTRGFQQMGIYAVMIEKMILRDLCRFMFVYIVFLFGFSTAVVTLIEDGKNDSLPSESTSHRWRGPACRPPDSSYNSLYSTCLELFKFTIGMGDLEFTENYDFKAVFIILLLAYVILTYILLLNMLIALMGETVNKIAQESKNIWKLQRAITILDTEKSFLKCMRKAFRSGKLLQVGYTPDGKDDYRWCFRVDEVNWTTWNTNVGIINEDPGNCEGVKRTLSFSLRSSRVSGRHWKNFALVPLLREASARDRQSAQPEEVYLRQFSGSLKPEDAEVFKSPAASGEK

Which results are given for `Cc1ccnnc1N1CCN(C(=O)Nc2ccc(C(C)(C)C)cc2)CC1` [Compound A17, 4-(4-Methyl-pyridazin-3-yl)-piperazine-1-carboxylic acid (4-tert-butyl-phenyl)-amide]?
IC50 [1]: 0.0472 ± 0.0099 µM; IC50 [2]: 0.221 ± 0.0505 µM
